B1: carbonyl reductase: Carbonyl reductase purified from Ogataea minuta var. nonfermentans IFO 1473, amino acid sequence SEQ ID NO: 1, about 27,000 Da by SDS-PAGE (protein)
chain: MAKTVYFIAGASRGIGLEVASQLSANPDNYVIASYRSEKSASGLLELAKKDNVDTIVLDIASQESIDAVPAQISKLTDGIDVALINAGIANAMCPILECSRESYTDHWTTNALGPIMLYQAIHKFMLQRETRKVFFTTSAGGSIQAKIPVPVSGYGMSKAALNYAVRKLADECYKDNFTIVLLHPGFVKTDMGQSAIQKMSNGNAELLAYIDSMTIDVPTSAGQIVGAIMTLDKQSSGRFINAADQFDMPF
modifications: Ogataea minuta var nonfermentans

tested on: carbonyl reductase; experiment: Reduction activity of the enzyme on various ketones and aldehyde (initial rate of NADPH decrease); assay type: biochemical, Ogataea minuta var. nonfermentans IFO 1473; conditions: pH 7

First: CC(=O)C(C)=O [Diacetyl]
Second: CC(=O)c1ccc(Cl)cc1 [p-Chloro-acetophenone]
The “Specific activity (%)” value of the first is higher: 12.3% for the first, 10.2% for the second.

Going from `N#CCCc1ccccc1` [Benzylacetonitrile] to `O=C(CCl)c1ccccc1` [2-Chloro-acetophenone], the “Specific activity (%)” value falls from 25.9% to 19.6%.

First: O=C1CCCCC1Cl (centres unmarked) [2-Chloro-cyclohexanone]
Second: CC(=O)c1cccc(Cl)c1 [m-Chloro-acetophenone]
The “Specific activity (%)” value of the first is higher: 163.0% for the first, 30.7% for the second.

First: O=C(c1ccccc1)C(F)(F)F [2,2,2-Trifluoro-acetophenone]
Second: CCC(=O)c1ccccc1 [Propiophenone]
The “Specific activity (%)” value of the first is higher: 100.0% for the first, 18.8% for the second.

same assay, conditions: relative to 2,2,2-trifluoroacetophenone defined as 100; NADPH, 0.1 M phosphate buffer pH 7.0

First: CC(=O)c1cccc(Br)c1 [m-Bromo-acetophenone]
Second: O=Cc1cccc(Cl)c1 [m-Chlorobenzaldehyde]
The “Specific activity (%)” value of the first is higher: 21.3% for the first, 14.3% for the second.

Compared with `O=Cc1ccc(Cl)cc1` [p-Chlorobenzaldehyde], `O=Cc1ccccc1Cl` [o-Chlorobenzaldehyde] is higher in “Specific activity (%)” value: 15.2% for the first, 81.2% for the second.

Going from `CC1(C)COC(=O)C1=O` [α-Keto-pantolactone] to `CC1(Cl)CCCCC1=O` (centres unmarked) [2-Chloro-2-Methyl-cyclohexanone], the “Specific activity (%)” value rises from 26.3% to 105.4%.

Compared with `CCOC(=O)C(=O)C(C)C` [Ethyl-3-methyl-2-oxobutanoate], `CCOC(=O)CC(=O)c1ccccc1` [Ethyl benzoylacetate] is lower in “Specific activity (%)” value: 72.1% for the first, 10.9% for the second.

Going from `O=Cc1ccccc1[N+](=O)[O-]` [o-Nitrobenzaldehyde] to `O=Cc1cccc([N+](=O)[O-])c1` [m-Nitrobenzaldehyde], the “Specific activity (%)” value falls from 52.6% to 45.6%.

tested on: carbonyl reductase; experiment: Temperature stability of the enzyme (residual 2,2,2-trifluoroacetophenone reducing activity); assay type: biochemical, Ogataea minuta var. nonfermentans IFO 1473; conditions: 50° C. or more, 10 minutes, 20 mM phosphate buffer pH 7.0

For B1, the residual activity was “rapidly deactivated”.

same assay, conditions: 70° C., 10 minutes, 20 mM phosphate buffer pH 7.0

In the case of B1, the residual activity is reported as “lost the activity completely”.

same assay, conditions: up to 40° C., 10 minutes, 20 mM phosphate buffer pH 7.0

With B1 the residual activity was at least 79%.

tested on: carbonyl reductase; experiment: 2,2,2-trifluoroacetophenone reducing activity after treating the enzyme with various reagents; assay type: biochemical, Ogataea minuta var. nonfermentans IFO 1473; conditions: enzyme treated at 30° C. for 10 minutes
Protocol: Further, the enzyme was treated in various reagents at 30° C. for 10 minutes and then 2,2,2-trifluoroacetophenone reducing activity was measured.

For `[Cl][Pb][Cl]` [lead chloride], the “activity of enzyme in the presence of reagent” value was “considerably inhibited”.
In the case of `O=[N+]([O-])[O-].[Hg+]` [mercury nitrate], the “activity of enzyme in the presence of reagent” value is reported as “considerably inhibited”.

— US7335757B2, “Carbonyl reductase, gene encoding the same, and process for producing optically active alcohols using the same” (Mitsubishi Chemical Corporation, priority 2002, dated 2008)
